Assay results from patent US11752095B2, “Medroxyprogesterone acetate injectable compositions and methods of use” (Family Health International, priority 2018, dated 2023).
Like-named read-outs stand apart in the source and are kept apart here.

Test: Pharmacokinetics in women (Example 23)
Type: in vivo
Conditions: composition with 400 mg/ml MPA; for Cmax / half-life / Tmax / concentration at 28 day / concentration at 91 day / concentration at 182 day: female, human, in vivo
Procedure: 12 women were sequentially administered medroxyprogesterone acetate. PK was evaluated for at least 182 days. The composition tested was an embodiment of the disclosure and included 400 mg/ml MPA,

With `CC(=O)O[C@]1(C(C)=O)CC[C@H]2[C@@H]3C[C@H](C)C4=CC(=O)CC[C@]4(C)[C@H]3CC[C@@]21C` [medroxyprogesterone acetate] the “AUC0-28, Mean” value (N 6) was 9.84 ng·days/mL, the “AUC0-28, Median” value (N 6) was 9.31 ng·days/mL and the “AUC0-28, Min-Max” value (N 6) was 7.83 to 14.52 ng·days/mL. For the same compound, the “AUC0-91, Mean” value (N 6) was 34.52 ng·days/mL, the “AUC0-91, Median” value (N 6) was 34.87 ng·days/mL and the “AUC0-91, Min-Max” value (N 6) was 23.41 to 44.06 ng·days/mL. For the same compound, the “AUC0-182, Mean” value (N 6) was 60.21 ng·days/mL, the “AUC0-182, Median” value (N 6) was 60.28 ng·days/mL and the “AUC0-182, Min-Max” value (N 6) was 38.62 to 84.88 ng·days/mL. It also gave a Cmax (N 6, read-out: Cmax, Mean) of 0.53 ng/mL, a Cmax (N 6, read-out: Cmax, Median) of 0.55 ng/mL and a Cmax (N 6, read-out: Cmax, Min-Max) of 0.42 to 0.69 ng/mL. The half-life (N 6, read-out: Half-life, Mean (converted)) was 99.4 days, the half-life (N 6, read-out: Half-life, Median (converted)) was 104 days and the half-life (N 6, read-out: Half-life, Min-Max) was 22.9 to 166 days. For the same compound, the Tmax (N 6, read-out: Tmax, Mean (converted)) was 17.4 days, the Tmax (N 6, read-out: Tmax, Median (converted)) was 9.49 days and the concentration at 28 day (day 28, N 6, read-out: C28, Mean) was 0.36 ng/mL. The concentration at 28 day (day 28, N 6, read-out: C28, Median) was 0.36 ng/mL, the concentration at 28 day (day 28, N 6, read-out: C28, Min-Max) was 0.03 to 0.5 ng/mL and the concentration at 91 day (day 91, N 6, read-out: C91, Mean) was 0.41 ng/mL. The concentration at 91 day (day 91, N 6, read-out: C91, Median) was 0.41 ng/mL, the concentration at 91 day (day 91, N 6, read-out: C91, Min-Max) was 0.26 to 0.63 ng/mL and the concentration at 182 day (day 182, N 6, read-out: C182, Mean) was 0.22 ng/mL. The concentration at 182 day (day 182, N 6, read-out: C182, Median) was 0.22 ng/mL and the concentration at 182 day (day 182, N 6, read-out: C182, Min-Max) was 0.14 to 0.34 ng/mL.
